The results in this text go back to PMC9697446 (International Journal of Molecular Sciences, 2022).

Where “and” joins values, the source holds several entries; their conditions need not be identical. Identical values can stand only once.

Assay [1] addresses T1, EeAChE (Electrophorus electricus, UniProt O42275).
T1 construct: purchased Sigma-Aldrich type VI-S
Nature of the assay: biochemical. The conditions noted are these: means ± SEM (n = 3); read-out: EeAChE Inhibition, IC50. The procedure:
We selected AChE from electric eels (Electrophorus electricus) for consistency with our other reports and because of its purity, specific activity, and lower cost compared to human AChE [64].
AChE and BChE activities were measured via the Ellman method. The assay solution consisted of 0.1 M K/Na phosphate buffer pH 7.5, 25 °C with the addition of 0.33 mM DTNB, 0.02 unit/mL of AChE or BChE and 1 mM of substrate (ATCh or BTCh, respectively). The assays were carried out with a reagent blank containing all components (except AChE orBChE) in order to account for the non-enzymatic hydrolysis of the substrate. In addition, an enzyme blank was included that contained all components except substrate to account for non-substrate sulfhydryl groups.
The test compounds were dissolved in DMSO, and the incubation mixture contained 2% (v/v) of the solvent. Enzyme inhibition was first assessed at a single concentration of 20 µM for each compound after a 5 min incubation at 25 °C in three separate experiments. […] The test compounds were added to the assay solution and preincubated at 25 °C with the enzymes for 5 min, followed by the addition of substrate. A parallel control was made for the assay solution with no inhibitor. Measurements were performed with a FLUOStar Optima microplate reader (BMG Labtech, Ortenberg, Germany). Each experiment was performed in triplicate. The results were expressed as the mean ± SEM. The reaction rates in the presence and absence of the inhibitor were compared, and the percent of residual enzyme activity due to the presence of test compounds was calculated.
PIand donepezil were purchased from Sigma-Aldrich. […] As the source of the enzyme, electric eel (Elecrophorus electricus) AChE (EeAChE, type VI-S, lyophilized powder, Sigma-Aldrich, Saint Louis, MO, USA) was used. The applicability of this enzyme was shown earlier

Assay [2] in a line: Oxygen radical absorbance capacity assay (ORAC-FL). The conditions noted are these: Trolox equivalent, Trolox = 1; means ± SEM (n = 3).
Text: The method is based on the measurement of the fluorescence intensity characterizing the degree of destruction of the fluorescence probe under the action of peroxyl radicals.
The peroxyl radical scavenging capacity of the test compounds was characterized in terms of the Trolox equivalent (TE), which is equal to the ratio of the Trolox concentration to the concentration of a test compound when they show equal fluorescence intensities in the assay. The peroxyl radical scavenging capacity of Trolox was set as 1 [67, 68].
2,2´-Azobis(amidinopropane) dihydrochloride (AAPH), (±)-6-hydroxy-2,5,7,8-tetramethylchroman-2-carboxylic acid (Trolox), and fluorescein (FL) were purchased from Sigma-Aldrich. The reaction was carried out at 37 °C in 75 mM K,Na phosphate buffer (pH 7.4), and the final reaction mixture was 200 µL. The test compounds and the Trolox standard were dissolved in DMSO to 10 mM and further diluted in a 75 mM K,Na phosphate buffer (pH 7.4). The final concentrations were 0.1–1 µM for the test compounds and 1–6 µM for the Trolox. The blank was composed of 20 µL of a 75 mM K,Na phosphate buffer (pH 7.4) containing 20% (v/v) DMSO, 120 µL of FL and 60 µL of AAPH, and it was added in each assay. The antioxidant (20 µL) and FL (120 µL, final concentration: 70 nM) solutions were placed in a black 96-well microplate and were preincubated for 15 min at 37 °C. A solution of AAPH (60 µL, final concentration: 12 mM) was then added rapidly using a multichannel pipette. The microplate was immediately placed in the reader, and the fluorescence was recorded every minute for 100 min. The microplate was automatically shaken prior to each reading. The Trolox standard curve was also obtained in each assay. All reactions were carried out in triplicate, and at least three different assays were performed for each sample.
The antioxidant curves (fluorescence vs. time) were first normalized to the curve of the blank (without the antioxidant) corresponding to the same assay, and the area under the fluorescence decay curve (AUC) was calculated. The net AUC corresponding to a sample was calculated by subtracting the AUC corresponding to the blank. Regression equations were calculated by plotting the net AUC against the antioxidant concentration. The ORAC Tolox equivalent value (TE) was obtained by dividing the slope of the latter curve by the slope of the Trolox curve obtained in the same assay. The ability of Trolox to scavenge the peroxyl radical was equal to 1 [64, 65]. […] The data are expressed as means ± SEM.
In assay [3] the test system is Fe3+-induced LP in rat brain homogenate. Nature of the assay: Fe3+-induced lipid peroxidation in rat brain homogenate. It is filed as biochemical. The conditions noted are these: for IC50: LP induced by 0.5 mM Fe3+ in rat brain homogenate, mean ± SD, read-out: Inhibition of LP IC50; for Pro-oxidant activity in rat brain homogenate: 10 nM to 30 µM. The procedure: The influence of MB and its conjugates with indole derivatives on Fe^3+-induced lipid peroxidation (LP) in rat brain homogenate was studied over a broad concentration range (from 10 nM to 30 µM).
On the day of the experiment, adult Wistar male rats that fasted overnight were euthanized in a CO2 chamber, followed by decapitation. The procedure was in compliance with the Guidelines for Animal Experiments at the Institute of Physiologically Active Compounds of the Russian Academy of Sciences. The brains were rapidly removed and homogenized in 0.12 M HEPES/0.15M NaCl, pH 7.4 buffer (HBS) ([…]) and used immediately for the assay.
The protein concentrations in rat brain homogenate (RBH) were determined by the biuret assay using bovine serum albumin as the standard.
The effect of the compounds on LP of the RBH was studied at […] in 0.25 mL of RBH (2 mg of protein·mL^−1) in the presence of the compounds or the vehicle (DMSO). Lipid peroxidation was induced by Fe^3+ (0.5 mM Fe(NH4)(SO4)2) as an oxidant.
The reaction mixture was incubated for 30 min at 37 °C, then quenched by adding 0.4 mL of quench medium containing 250 mM HCl and 15% (w/v) trichloroacetic acid. The samples were then centrifuged for 10 min at 10,000× g, and 75 µL of the supernatant was transferred to a 96-well plate. Next, 75 µL of 0.8% (w/v) 2-thiobarbituric acid (TBA) was added. The plate was then sealed, heated at 95 °C for 15 min, cooled to 4 °C, and the absorbance at 530–620 nm was measured using a Wallac Victor 3 1420 Multilabel Counter (Perkin Elmer, Turku, Finland).
All the experiments were performed as four independent runs with different brain homogenate preparations and three repeated probes in each run. The average results for each run were normalized between the positive control with the vehicle and Fe^3+ and negative control with only the vehicle. They were presented as the IC50 ± SD values for the antioxidant activities of the compounds which were calculated using GraphPad Prism 7.00 software (San Diego, CA, USA).

The nature of assay [4]: ABTS radical cation scavenging assay. The conditions noted are these: 1 h incubation, means ± SEM (n = 3); for IC50: 50% reduction of ABTS radical; for ABTS Scavenging Activity, TEAC Value: Trolox equivalent antioxidant capacity. The procedure: The ABTS assay is based on the direct binding of a model ABTS radical cation (2,2′-azino-bis-(3-ethylbenzothiazoline-6-sulfonate), ABTS^•+) by antioxidants. The measurements were performed as previously described in detail.
The radical scavenging activity was expressed as TEAC values (Trolox equivalent antioxidant capacity) and determined as the ratio between the slopes obtained from the linear correlation of the ABTS radical absorbance with the concentrations of the test compounds and Trolox.
The radical scavenging activity of the compounds was assessed using an ABTS radical decolorization assay. The procedure followed the reported protocol with minor modifications. ABTS (2,2ʹ-azino-bis-(3-ethylbenzothiazoline-6-sulfonic acid) diammonium salt) was purchased from TCI (Tokyo, Japan), while potassium persulfate (di-potassium peroxodisulfate), Trolox (6-hydroxy-2,5,7,8-tetramethylchroman-2-carboxylic acid), catechol, and DMSO were received from Sigma-Aldrich Chemical Co. (St. Louis, MO, USA). The ethanol was HPLC grade. Aqueous solutions were prepared using deionized water.
Trolox was used as the standard reference compound. Catechol was used as the positive control. All test and reference compounds were dissolved in DMSO. The final concentration of DMSO in the reaction mixture was 4% (v/v).
The solution of ABTS radical cation (ABTS^•+) was produced by mixing a 7 mM ABTS stock solution with a 2.45 mM aqueous solution of potassium persulfate in equal quantities and allowing them to react for 12–16 h at room temperature in the dark. At the time of activity determination, the ABTS^•+ solution was diluted with ethanol to adjust it to an absorbance value of about 0.80 ± 0.05 at 734 nm. A fresh working solution of ABTS^•+ was prepared for each assay.
The radical scavenging capacity of the compounds was analyzed by mixing 10 μL of test compound with 240 μL of ABTS^•+ working solution. The reduction in absorbance was measured spectrophotometrically at 734 nm using an xMark microplate UV/VIS spectrophotometer (Bio-Rad, Hercules, CA, USA). The reaction was monitored for an hour at 10 min intervals. Data were given for 1 h of incubation of compounds with ABTS^•+. EtOH blanks were run in each assay. The results were obtained from three replicates of each sample and three independent experiments.
The antioxidant capacity as a Trolox equivalent (TEAC values) was determined as the ratio between the slopes obtained from the linear correlation of concentrations of test compounds and Trolox with absorbance of ABTS radical.

T1 sequence (O42275 24-633): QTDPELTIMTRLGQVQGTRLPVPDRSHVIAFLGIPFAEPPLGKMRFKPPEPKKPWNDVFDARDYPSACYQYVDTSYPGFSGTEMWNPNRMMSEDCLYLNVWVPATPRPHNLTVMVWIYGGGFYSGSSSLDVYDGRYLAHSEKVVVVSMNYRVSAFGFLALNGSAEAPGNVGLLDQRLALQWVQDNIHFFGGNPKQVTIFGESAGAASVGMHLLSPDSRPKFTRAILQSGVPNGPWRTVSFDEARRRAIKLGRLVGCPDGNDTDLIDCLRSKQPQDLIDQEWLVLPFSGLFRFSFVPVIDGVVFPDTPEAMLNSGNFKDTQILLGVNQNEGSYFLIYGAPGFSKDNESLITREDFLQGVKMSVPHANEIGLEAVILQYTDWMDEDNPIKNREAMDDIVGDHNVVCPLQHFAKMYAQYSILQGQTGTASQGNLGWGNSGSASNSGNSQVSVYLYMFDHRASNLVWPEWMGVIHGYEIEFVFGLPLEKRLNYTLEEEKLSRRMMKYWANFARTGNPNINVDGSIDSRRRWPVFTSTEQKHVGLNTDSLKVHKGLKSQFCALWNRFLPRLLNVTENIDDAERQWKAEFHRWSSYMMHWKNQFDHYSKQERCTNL

By IC50 is commonly meant the midpoint of a concentration-inhibition curve. Turning to `CC1CCc2c(c3cc(OC(F)(F)F)ccc3n2CCC(=O)N2c3ccc(N(C)C)cc3Sc3cc(N(C)C)ccc32)C1` (stereo not drawn) [Compound 4i], the IC50 in assay [1] came to 410 ± 30 nM; in assay [3] it was 580 ± 260 nM; in assay [4], 17200 ± 1200 nM. The “ORAC, TE Value” in assay [2] was found to be 5.1 ± 0.4. In assay [4], the “ABTS Scavenging Activity, TEAC Value” was determined as 1.14 ± 0.11.

For the compound `COc1ccc2c(c1)c1c(n2CCC(=O)N2c3ccc(N(C)C)cc3Sc3cc(N(C)C)ccc32)CCC(C)C1` (stereo not drawn) [Compound 4e], the IC50 in assay [1] was 1920 ± 140 nM; in assay [3], 500 ± 360 nM; in assay [4], 13700 ± 900 nM. Moreover, the “ORAC, TE Value” in assay [2] stood at 13.3 ± 1.3. Also, the “ABTS Scavenging Activity, TEAC Value” in assay [4] is 1.46 and 1.46 ± 0.11.

For the compound `CN(C)c1ccc2c(c1)Sc1cc(N(C)C)ccc1N2C(=O)CCn1c2c(c3ccccc31)CCCCC2` [Compound 4j], the IC50 in assay [1] was 2700 ± 90 nM; in assay [3] it was 620 ± 370 nM; in assay [4] it was 16300 ± 1400 nM. Further, the “ORAC, TE Value” in assay [2] is 12.4 ± 0.2. Besides, in assay [4], the “ABTS Scavenging Activity, TEAC Value” was 1.15 ± 0.09.

On to `CN(C)c1ccc2c(c1)Sc1cc(N(C)C)ccc1N2C(=O)CCn1c2c(c3cc(F)ccc31)CCCC2` [Compound 4f], for which the IC50 was found to be 1110 ± 120 nM in assay [1], 600 ± 320 nM in assay [3] and 27200 ± 1600 nM in assay [4]. The “ORAC, TE Value” in assay [2] is 5.6 ± 0.4. For the same compound, in assay [4], the “ABTS Scavenging Activity, TEAC Value” stood at 0.85 ± 0.04.

Regarding `COc1ccc2c(c1)c1c(n2CCC(=O)N2c3ccc(N(C)C)cc3Sc3cc(N(C)C)ccc32)CCCC1` [Compound 4d], the IC50 in assay [1] turned out to be 2250 ± 70 nM; in assay [3], 1120 ± 620 nM; in assay [4], 39300 ± 1500 nM. Further, the “ORAC, TE Value” in assay [2] is recorded as 4.8 ± 0.3. In addition, the “ABTS Scavenging Activity, TEAC Value” in assay [4] is listed as 0.75 ± 0.05.

As to `Cc1ccc2c(c1)c1c(n2CCC(=O)N2c3ccc(N(C)C)cc3Sc3cc(N(C)C)ccc32)CCCCCC1` [Compound 4n], the half-maximal inhibitory concentration (IC50) amounted to 950 ± 70 nM in assay [1], 930 ± 680 nM in assay [3] and 14900 ± 1200 nM in assay [4]. Besides, the “ORAC, TE Value” in assay [2] is 10.9 ± 0.6. Also, the “ABTS Scavenging Activity, TEAC Value” in assay [4] is 1.20 ± 0.14.

Take `CN(C)c1ccc2c(c1)Sc1cc(N(C)C)ccc1N2C(=O)CCn1c2c(c3ccccc31)CCC2` [Compound 4a]: the IC50 in assay [1] came out at 2350 ± 230 nM; in assay [3], 1240 ± 720 nM; in assay [4], 21000 ± 1400 nM. For the same compound, the “ORAC, TE Value” in assay [2] was found to be 6.8±0.4. The “ABTS Scavenging Activity, TEAC Value” in assay [4] was found to be 0.99 ± 0.08.

Take `CN(C)c1ccc2c(c1)Sc1cc(N(C)C)ccc1N2C(=O)CCn1c2c(c3cc(OC(F)(F)F)ccc31)CCCC2` [Compound 4h]: the IC50 in assay [1] was determined as 890 ± 90 nM; in assay [3], 460 ± 320 nM; in assay [4] it was 17800 ± 1400 nM. The “ORAC, TE Value” in assay [2] is reported as 5.8 ± 0.5. The “ABTS Scavenging Activity, TEAC Value” in assay [4] is 1.10 ± 0.10.

On to `CN(C)c1ccc2c(c1)Sc1cc(N(C)C)ccc1N2C(=O)CCn1c2c(c3ccccc31)CCCC2` [Compound 4b], for which the IC50 in assay [1] stood at 2420 ± 180 nM; in assay [3], 1120 ± 630 nM; in assay [4], 24300 ± 1500 nM. For the same compound, the “ORAC, TE Value” in assay [2] came out at 8.6 ± 0.1. Besides, the “ABTS Scavenging Activity, TEAC Value” in assay [4] is 0.90 ± 0.04.

For `Cc1ccc2c(c1)c1c(n2CCC(=O)N2c3ccc(N(C)C)cc3Sc3cc(N(C)C)ccc32)CCCC1` [Compound 4c], the 50% inhibitory concentration (IC50) in assay [1] came to 1220 ± 10 nM; in assay [3] it was 780 ± 350 nM; in assay [4], 17600 ± 1800 nM. Also, the “ORAC, TE Value” in assay [2] worked out at 5.5 ± 0.4. Further, the “ABTS Scavenging Activity, TEAC Value” in assay [4] is 1.13 ± 0.09.

Regarding `CN(C)c1ccc2c(c1)Sc1cc(N(C)C)ccc1N2` [MBH2, reference compound], the half-maximal inhibitory concentration (IC50) in assay [1] worked out at 280 ± 20 nM. The “ORAC, TE Value” in assay [2] is given as “not detectable”. Also, in assay [3], the “Pro-oxidant activity in rat brain homogenate” value is “no pro-oxidant activity” and the 50% inhibitory concentration (IC50) stood at 530 ± 230 nM. In assay [4], the “ABTS Scavenging Activity, TEAC Value” is given as “not detectable”.

For the compound `Cc1ccc2c(c1)c1c(n2CCC(=O)N2c3ccc(N(C)C)cc3Sc3cc(N(C)C)ccc32)CCCCC1` [Compound 4k], the figures for the concentration for half-maximal inhibition (IC50) in assay [1], in assay [3] and in assay [4] were 4120 ± 370 nM, 820 ± 680 nM and 15400 ± 1300 nM, respectively. Also, the “ORAC, TE Value” in assay [2] amounted to 13.4 ± 1.3. Further, the “ABTS Scavenging Activity, TEAC Value” in assay [4] is given as 1.20 ± 0.13.

With `CN(C)c1ccc2c(c1)Sc1cc(N(C)C)ccc1N2C(=O)CCn1c2c(c3ccccc31)CCCCCC2` [Compound 4m], the IC50 was determined as 570 ± 20 nM in assay [1], 1520 ± 790 nM in assay [3] and 16700 ± 1600 nM in assay [4]. Further, in assay [2], the “ORAC, TE Value” came out at 15.7 ± 1.5. In addition, the “ABTS Scavenging Activity, TEAC Value” in assay [4] came to 1.11 ± 0.07.

Take `CN(C)c1ccc2nc3ccc(=[N+](C)C)cc-3sc2c1` [MB, Methylene blue, reference compound]: the “ORAC, TE Value” in assay [2] is listed as “not detectable”. In assay [3], the “Pro-oxidant activity in rat brain homogenate” value is “no pro-oxidant activity” and the concentration for half-maximal inhibition (IC50) came out at 1900 ± 500 nM. The “ABTS Scavenging Activity, TEAC Value” in assay [4] is “not detectable”.
